In patent US11059832B2, “HPK1 inhibitors and methods of using same” (University Health Network, priority 2015, dated 2021):
pIC50: −log10 of the molar value.

Columns and labels:
Format in all cases: biochemical
human HPK1 (MAP4K1) = molecular target: T1, human HPK1 (MAP4K1) (Homo sapiens, UniProt Q92918); assay: HPK1 inhibition assay (indirect ELISA); conditions: GST-HPK1 0.6 nM, 12 μM ATP; read-out: IC50 Range HPK1
T1 construct: human HPK1 (aa 1-346); purchased Invitrogen PV6355
T1 sequence (Q92918 1-346): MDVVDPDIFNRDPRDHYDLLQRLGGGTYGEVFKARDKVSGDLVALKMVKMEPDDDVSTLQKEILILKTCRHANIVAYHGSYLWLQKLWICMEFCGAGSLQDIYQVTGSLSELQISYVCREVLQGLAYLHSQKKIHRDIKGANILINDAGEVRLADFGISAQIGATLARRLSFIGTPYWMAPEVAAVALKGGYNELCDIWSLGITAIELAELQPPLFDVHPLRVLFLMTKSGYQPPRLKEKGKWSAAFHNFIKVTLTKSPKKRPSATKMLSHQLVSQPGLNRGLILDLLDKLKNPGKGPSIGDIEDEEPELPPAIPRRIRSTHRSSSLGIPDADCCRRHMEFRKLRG
Protocol: Active HPK1 (MAP4K1) was purchased as an N-terminal GST fusion of human HPK1 (aa 1-346) from Invitrogen (cat #PV6355). HPK1 activity was measured using an indirect ELISA detection system. GST-HPK1 (0.6 nM) was incubated in the presence of 12 μM ATP (Sigma cat #A7699), 5 mM MOPS (pH 7.2), 2.5 mM β-glycerol-phosphate, 5 mM MgCl2, 0.4 mM EDTA, 1 mM EGTA, 0.05 mM DTT, in a 96 well microtitre plate pre-coated with 0.5 μg/well bovine myelin basic protein (MBP) (Millipore, cat #13-110). The reaction was allowed to proceed for 30 min, followed by 5 washes of the plate with Wash Buffer (phosphate buffered saline supplemented with 0.2% Tween 20), and incubation for 30 min with a 1:3000 dilution of anti-phospho-threonine rabbit polyclonal antibody (Cell Signaling cat #9381). The plate was washed 5 times with wash buffer, incubated for 30 min in the presence of goat anti-rabbit horse radish peroxidase conjugate (BioRad cat #1721019, 1:3000 concentration), washed an additional 5 times with wash buffer, and incubated in the presence of TMB substrate (Sigma cat #T0440). The colorimetric reaction was allowed to continue for 5 min, followed by addition of stop solution (0.5 N H2SO4), and quantified by detection at 450 nm with a monochromatic plate reader (Molecular Devices M5).
Compound inhibition was determined at either a fixed concentration (10 μM) or at a variable inhibitor concentration (typically 50 μM to 0.1 μM in a 10 point dose response titration). Compounds were pre-incubated in the presence of enzyme for 15 min prior to addition of ATP and the activity remaining quantified using the above described activity assay. The % inhibition of a compound was determined using the following formula; % inhibition=100×(1−(experimental value−background value)/(high activity control−background value)). The IC50 value was determined using a non-linear 4 point logistic curve fit (XLfit4, IDBS) with the formula; (A+(B/(1+((x/C)^D)))), where A=background value, B=range, C=inflection point, D=curve fit parameter.

LCK = molecular target: T2, LCK (Homo sapiens, UniProt P06239); assay: LCK inhibition, FRET based Z'-LYTE Kinase Assay; conditions: 25 nM LCK, 180 μM ATP; read-out: IC50 Range Lck
T2 construct: purchased Invitrogen P3043
T2 sequence (P06239 whole entry, species assumed): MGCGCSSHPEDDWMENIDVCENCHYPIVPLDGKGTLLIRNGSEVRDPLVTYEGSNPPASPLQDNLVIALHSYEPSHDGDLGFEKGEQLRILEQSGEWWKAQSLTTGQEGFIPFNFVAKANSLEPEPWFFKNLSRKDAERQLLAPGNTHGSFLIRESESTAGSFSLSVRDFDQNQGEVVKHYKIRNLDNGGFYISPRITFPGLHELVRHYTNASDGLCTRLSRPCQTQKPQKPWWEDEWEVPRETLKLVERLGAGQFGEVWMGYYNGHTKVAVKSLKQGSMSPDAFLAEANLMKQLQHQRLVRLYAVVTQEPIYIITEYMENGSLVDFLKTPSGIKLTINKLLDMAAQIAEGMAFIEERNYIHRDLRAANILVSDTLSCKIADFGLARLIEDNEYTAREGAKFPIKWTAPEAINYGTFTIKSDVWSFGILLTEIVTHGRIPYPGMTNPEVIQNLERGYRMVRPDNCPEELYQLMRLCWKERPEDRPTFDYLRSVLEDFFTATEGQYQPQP
Protocol: (§1) FLT3 and LCK compound inhibition were determined using FRET based Z′-LYTE Kinase Assay Kit with Tyrosine 2 peptide as the substrate (Invitrogen cat #PV3191). […] The % inhibition values were determined according to the manufacturer's directions and IC50 values were obtained using a non-linear 4 point logistic curve fit (XLfit4, IDBS).

FLT3 = molecular target: T3, FLT3 (Homo sapiens, UniProt P36888); assay: FLT3 inhibition, FRET based Z'-LYTE Kinase Assay; conditions: 1 nM FLT3, 940 μM ATP; read-out: IC50 Range Flt3
T3 construct: purchased Invitrogen PV3182
T3 sequence (P36888 27-993): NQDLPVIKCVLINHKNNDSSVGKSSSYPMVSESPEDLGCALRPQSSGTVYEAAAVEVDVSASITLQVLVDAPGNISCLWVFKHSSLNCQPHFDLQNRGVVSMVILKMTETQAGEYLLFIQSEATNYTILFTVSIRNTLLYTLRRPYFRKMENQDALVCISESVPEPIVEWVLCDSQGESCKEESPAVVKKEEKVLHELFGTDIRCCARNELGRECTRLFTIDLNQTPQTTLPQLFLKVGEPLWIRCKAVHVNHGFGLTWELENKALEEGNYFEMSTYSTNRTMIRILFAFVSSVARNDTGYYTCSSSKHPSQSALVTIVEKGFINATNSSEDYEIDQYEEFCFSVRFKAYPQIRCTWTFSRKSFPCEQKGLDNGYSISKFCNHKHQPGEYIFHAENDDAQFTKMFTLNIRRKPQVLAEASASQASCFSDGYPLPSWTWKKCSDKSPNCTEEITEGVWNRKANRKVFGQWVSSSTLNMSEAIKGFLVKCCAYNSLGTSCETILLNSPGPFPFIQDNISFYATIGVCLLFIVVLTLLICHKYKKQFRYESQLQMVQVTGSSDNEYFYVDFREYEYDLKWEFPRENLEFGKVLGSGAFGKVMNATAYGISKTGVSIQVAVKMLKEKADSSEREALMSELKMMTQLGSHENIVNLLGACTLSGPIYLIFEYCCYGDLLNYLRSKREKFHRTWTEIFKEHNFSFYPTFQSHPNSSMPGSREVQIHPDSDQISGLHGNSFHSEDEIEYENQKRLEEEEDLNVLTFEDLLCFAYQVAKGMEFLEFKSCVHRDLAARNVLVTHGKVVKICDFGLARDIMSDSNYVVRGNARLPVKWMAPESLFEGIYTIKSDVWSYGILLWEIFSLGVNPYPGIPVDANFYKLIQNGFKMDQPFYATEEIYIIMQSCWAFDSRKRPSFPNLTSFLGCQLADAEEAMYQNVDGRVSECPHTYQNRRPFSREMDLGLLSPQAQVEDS
Protocol: as §1

Compound	pIC50 (human HPK1 (MAP4K1))	pIC50 (LCK)	pIC50 (FLT3)
CN1CCN(c2ccc3nc(-c4c(NC5CCNCC5(F)F)c5ccsc5[nH]c4=O)[nH]c3c2)CC1 (stereo not drawn) [Example A15, 4-((3,3-difluoropiperidin-4-yl)amino)-5-(6-(4-methylpiperazin-1-yl)-1H-benzo[d]imidazol-2-yl)thieno[2,3-b]pyridin-6(7H)-one]	≥ 7.30	≥ 7.30	≥ 7.30
CN1CCN(c2ccc3nc(-c4c(NC5CCN(C=O)CC5)c5ccsc5[nH]c4=O)[nH]c3c2)CC1 [Example A17, 4-((5-(6-(4-methylpiperazin-1-yl)-1H-benzo[d]imidazol-2-yl)-6-oxo-6,7-dihydrothieno[2,3-b]pyridin-4-yl)amino)piperidine-1-carbaldehyde]	≥ 7.30	≥ 7.30	≥ 7.30
CN1CCN(c2ccc3nc(-c4c(NCc5ccncc5)c5sccc5[nH]c4=O)[nH]c3c2)CC1 [Example A22, 6-(6-(4-methylpiperazin-1-yl)-1H-benzo[d]imidazol-2-yl)-7-((pyridin-4-ylmethyl)amino)thieno[3,2-b]pyridin-5(4H)-one]	≥ 7.30	6.30 to 7.30	≥ 7.30
CN1CCN(c2ccc3nc(-c4c(NC5CCCC5)c5cscc5[nH]c4=O)[nH]c3c2)CC1 [Example A24, 4-(cyclopentylamino)-3-(6-(4-methylpiperazin-1-yl)-1H-benzo[d]imidazol-2-yl)thieno[3,4-b]pyridin-2(1H)-one]	≥ 7.30	≥ 7.30	≥ 7.30
CN1CCN(c2ccc3nc(-c4c(NC5CCC5)c5cscc5[nH]c4=O)[nH]c3c2)CC1 [Example A27, 4-(cyclobutylamino)-3-(6-(4-methylpiperazin-1-yl)-1H-benzo[d]imidazol-2-yl)thieno[3,4-b]pyridin-2(1H)-one]	≥ 7.30	≥ 7.30	≥ 7.30
Nc1c(-c2nc3ccc(N4CCOCC4)cc3[nH]2)c(=O)[nH]c2ccsc12 [Example A31, 7-amino-6-(6-morpholino-1H-benzo[d]imidazol-2-yl)thieno[3,2-b]pyridin-5(4H)-one]	≥ 7.30	6.30 to 7.30	≥ 7.30
C[C@@H]1CN(c2ccc3nc(-c4c(N)c5sccc5[nH]c4=O)[nH]c3c2)C[C@H](C)N1C [Example A33, 7-amino-6-(6-(3r,5s)-rel-3,4,5-trimethylpiperazin-1-yl)-1H-benzo[d]imidazol-2-yl)thieno[3,2-b]pyridin-5(4H)-one]	≥ 7.30	6.30 to 7.30	≥ 7.30
CN1CCN(c2ccc3nc(-c4c(NC5CCOCC5)c5sccc5[nH]c4=O)[nH]c3c2)CC1 [Example A35, 6-(6-(4-methylpiperazin-1-yl)-1H-benzo[d]imidazol-2-yl)-7-((tetrahydro-2H-pyran-4-yl)amino)thieno[3,2-b]pyridin-5(4H)-one]	≥ 7.30	≥ 7.30	≥ 7.30
CN1CCN(c2ccc3nc(-c4c(NCC5CCOCC5)c5sccc5[nH]c4=O)[nH]c3c2)CC1 [Example A38, 6-(6-(4-methylpiperazin-1-yl)-1H-benzo[d]imidazol-2-yl)-7-(((tetrahydro-2H-pyran-4-yl)methyl)amino)thieno[3,2-b]pyridin-5(4H)-one]	≥ 7.30	≥ 7.30	≥ 7.30
CN1CCN(c2ccc3nc(-c4c(NC5CCNCC5)c5sccc5[nH]c4=O)[nH]c3c2)CC1 [Example A39, 6-(6-(4-methylpiperazin-1-yl)-1H-benzo[d]imidazol-2-yl)-7-(piperidin-4-ylamino)thieno[3,2-b]pyridin-5(4H)-one]	≥ 7.30	≥ 7.30	≥ 7.30
CN1CCN(c2ccc3nc(-c4c(N[C@H]5CC[C@@H](O)CC5)c5sccc5[nH]c4=O)[nH]c3c2)CC1 [Example A40, 7-(((1S,4S)-4-hydroxycyclohexyl)amino)-6-(6-(4-methylpiperazin-1-yl)-1H-benzo[d]imidazol-2-yl)thieno-[3,2-b]pyridin-5(4H)-one]	≥ 7.30	≥ 7.30	≥ 7.30
CN1CCN(c2ccc3nc(-c4c(N[C@H]5CCCC[C@@H]5O)c5sccc5[nH]c4=O)[nH]c3c2)CC1 [Example A41, 7-(((1S,2S)-2-hydroxycyclohexyl)amino)-6-(6-(4-methylpiperazin-1-yl)-1H-benzo[d]imidazol-2-yl)thieno[3,2-b]pyridin-5(4H)-one]	≥ 7.30	≥ 7.30	≥ 7.30
CN1CCN(c2ccc3nc(-c4c(N[C@H]5CCC[C@@H]5O)c5sccc5[nH]c4=O)[nH]c3c2)CC1 [Example A42, 7-(((1S,2S)-2-hydroxycyclopentyl)amino)-6-(6-(4-methylpiperazin-1-yl)-1H-benzo[d]imidazol-2-yl)thieno[3,2-b]pyridin-5(4H)-one]	≥ 7.30	≥ 7.30	≥ 7.30
CN1CCN(c2ccc3nc(-c4c(N[C@H]5CCCC[C@H]5O)c5sccc5[nH]c4=O)[nH]c3c2)CC1 [Example A44, 7-(((1S,2R)-2-hydroxycyclohexyl)amino)-6-(6-(4-methylpiperazin-1-yl)-1H-benzo[d]imidazol-2-yl)thieno[3,2-b]pyridin-5(4H)-one]	≥ 7.30	≥ 7.30	≥ 7.30
CN1CCC(Nc2c(-c3nc4ccc(N5CCOCC5)cc4[nH]3)c(=O)[nH]c3ccsc23)CC1 [Example A45, 7((1-methylpiperidin-4-yl)amino)-6-(6-morpholino-1H-benzo[d]imidazol-2-yl)thieno[3,2-b]pyridin-5(4H)-one]	≥ 7.30	≥ 7.30	≥ 7.30
CN1CCN(c2ccc3nc(-c4c(N[C@@H]5CCCC[C@@H]5O)c5sccc5[nH]c4=O)[nH]c3c2)CC1 [Example A46, 7-(((1R,2S)-2-hydroxycyclohexyl)amino)-6-(6-(4-methylpiperazin-1-yl)-1H-benzo[d]imidazol-2-yl)thieno[3,2-b]pyridin-5(4H)-one]	≥ 7.30	6.30 to 7.30	≥ 7.30
